Test results as given in patent US11318103B2, “Treating soft tissue via controlled drug release” (University of Pittsburgh—Of the Commonwealth System of …, priority 2014, dated 2022).

Legend:
[1] = tested on: human osteochondral plugs; experiment: T3-induced calcification of human osteochondral plugs (ALP assay, real time-PCR); assay type: cell-based; details: treatment with triiodothyronine (T3), day 0 versus day 20
Excerpt: FIG. 5 represents the outline for testing of preventing calcification. Experimental design to test the effects of triiodothyronine in inducing calcification and of dorsomorphin in inhibiting calcification in human osteochondral biopsies, an example of which is depicted on the right.
FIG. 6 is two graphs depicting ALP activity. The graphs represent the level of ALP activity in the osteochondral constructs media measured with a colorimetric ALP assay for the samples outlined in the previous figure.
Dorsomorphin has been encapsulated in PLGA-based MPs of micrometer scale dimensions. As the particles degrade, dorsomorphin is released generating a local concentration within the range required to prevent local calcification. To confirm this, human osteochondral plugs (3 mm by 3 mm by 8 mm of a cartilage and bone biopsy-like sample) have been forced to calcify using triiodothyronine (T3) and then exposed to dorsomorphin.

[2] = tested on: human chondrocytes; experiment: T3-induced hypertrophy of primary chondrocytes; assay type: cell-based; details: T3 medium 14 or 21 days, maintained after exposure to chondrogenic medium
Excerpt: FIGS. 7A-7F are microphotographs of human chondrocytes. Chondrocytes extracted from human donors have been cultured under a test medium to induce hypertrophy for 14 or 21 days followed by 14 or 7 days of chondrogenic medium, respectively. The test medium was either chondrogenic medium (negative control, no hypertrophy), medium containing triiodothyronine (T3) (hypertrophic), osteogenic medium (hypertrophic).
In autologous chondrocytes implantation (ACI) chondrocytes are implanted in a local cartilage defect. In an in vitro model of ACI based on a small osteochondral unit, as the one we use, a central cartilage defect would be filled with chondrocytes in a hydrogel. To simulate conditions of calcification, the chondrocytes will be pre-cultured in a hypertrophy inducing medium. After seeding, both native cartilage and implanted chondrocytes would be exposed to chondrogenic medium. We have previously shown that T3 induces hypertrophy in MSCs that underwent chondrogenic differentiation. […] Chondrogenic medium and osteogenic medium are used as comparison.

Question: Which “ALP activity in osteochondral constructs media” value [1] does the source give for `N[C@@H](Cc1cc(I)c(Oc2ccc(O)c(I)c2)c(I)c1)C(=O)O` [triiodothyronine] here?
Answer: statistically significant (p<0.05) increase in ALP activity

Question: And the primary chondrocytes hypertrophy [2]?
Answer: effective to induce primary chondrocytes hypertrophy
